Measured values published in ChEMBL document CHEMBL4184088, “Synthesis and biological evaluation of novel doxorubicin-containing ASGP-R-targeted drug-conjugates” (Bioorg Med Chem Lett, 2018).
The source made the active and inactive calls. The rule behind the calls is not given here.

Key:
[1] = system: HepG2; experiment: Cytotoxicity against human HepG2 cells assessed as reduction in cell viability at 100 umol after 48 hrs by MTS assay relative to control; assay type: functional
[2] = Drug uptake in human HepG2 cells assessed as doxorubicin conjugates accumulation at 10 uM after 6 hrs by fluorescence assay; assay type: ADME, cell-based; conditions: hepg2, 6 h
[3] = Drug uptake in human HEK293 cells assessed as assessed as doxorubicin conjugates accumulation at 10 uM after 6 hrs by fluorescence assay; assay type: ADME, cell-based; conditions: hek293, 6 h
[4] = Drug localization in human HepG2 cell cytoplasm at assessed as doxorubicin conjugates accumulation 10 uM after 24 hrs by DAPI staining-based fluorescence microscopic analysis; assay type: ADME; conditions: hepg2, 24 h
[5] = system: HepG2; experiment: Cytotoxicity against human HepG2 cells assessed as cell viability up to 70 uM after 2 hrs by MTS assay; assay type: functional, cell-based
[6] = Drug localization in human HepG2 cell nucleus assessed as doxorubicin conjugates accumulation at 10 uM after 24 hrs by DAPI staining-based fluorescence microscopic analysis; assay type: ADME; conditions: hepg2, 24 h
[7] = system: HepG2; experiment: Cytostatic activity against human HepG2 cells assessed as cell viability at 0.02 to 70 uM after 48 hrs by MTS assay; assay type: functional, cell-based
[8] = Drug uptake in human HEK293 cells assessed as doxorubicin conjugates accumulation at 10 uM after 24 hrs by fluorescence assay; assay type: ADME, cell-based; conditions: hek293, 24 h

Drug uptake [2] | Drug uptake [3] | Drug uptake [4] | Drug uptake [6] | Drug uptake [8] | Compound | Activity [1] | Activity [5] | Activity [7]
Active | Active | Active |  |  | C=CCO[C@@H]1O[C@H](Cn2cc(CCCC(=O)N[C@H]3C[C@H](O[C@H]4C[C@](O)(C(=O)CO)Cc5c(O)c6c(c(O)c54)C(=O)c4c(OC)cccc4C6=O)O[C@@H](C)[C@H]3O)nn2)[C@H](O)[C@H](O)[C@H]1NC(C)=O | 20 - 30% | inactive | 
Not Active |  |  | Not Active |  | COc1cccc2c1C(=O)c1c(O)c3c(c(O)c1C2=O)C[C@@](O)(C(=O)CO)C[C@@H]3O[C@H]1C[C@H](N)[C@H](O)[C@H](C)O1.Cl [DOXORUBICIN HYDROCHLORIDE] |  | inactive | Active
Active | Active | Active |  | Active | COc1cccc2c1C(=O)c1c(O)c3c(c(O)c1C2=O)C[C@@](O)(C(=O)CO)C[C@@H]3O[C@H]1C[C@H](NC(=O)CCCc2cn([C@@H]3O[C@H](CO)[C@H](O)[C@H](O)[C@H]3NC(C)=O)nn2)[C@H](O)[C@H](C)O1 | 20 - 30% | inactive | 
Active | Active | Active |  |  | COc1cccc2c1C(=O)c1c(O)c3c(c(O)c1C2=O)C[C@@](O)(C(=O)CO)C[C@@H]3O[C@H]1C[C@H](NC(=O)CCCc2cn(CCO[C@@H]3O[C@H](CO)[C@H](O)[C@H](O)[C@H]3NC(C)=O)nn2)[C@H](O)[C@H](C)O1 | 20 - 30% | inactive | 
